Source: PubChem BioAssay (NCI)
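Dose response: 5 concentrations. Exposure: 48 h. Format: 96-well plates. Endpoint: linear interpolation; highest concentration if not reached. Abbreviation: GI50, concentration required for 50% inhibition of growth. TGI denotes the concentration required for complete inhibition of growth.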 Where a SMILES comes first, the peptide text is derived from it.

Columns and labels:
Assay in all cases: NCI tumour cell line growth inhibition, 48 h
[1] = tested on: HCC-2998 colon
[2] = tested on: HL-60(TB) leukemia
[3] = tested on: HOP-62 NSCLC
[4] = tested on: MDA-MB-435
[5] = tested on: NCI-H226 lung
[6] = tested on: NCI-H460 lung
[7] = tested on: OVCAR-8 ovarian
[8] = tested on: RXF 393 renal
[9] = tested on: SK-MEL-5 melanoma
[10] = tested on: SNB-78 CNS

Row | SMILES | GI50 [1] [µM] | TGI [1] [µM] | GI50 [2] [µM] | TGI [2] [µM] | GI50 [3] [µM] | TGI [3] [µM] | GI50 [4] [µM] | TGI [4] [µM] | GI50 [5] [µM] | TGI [5] [µM] | GI50 [6] [µM] | TGI [6] [µM] | GI50 [7] [µM] | TGI [7] [µM] | GI50 [8] [µM] | TGI [8] [µM] | GI50 [9] [µM] | TGI [9] [µM] | TGI [10] [µM] | GI50 [10] [µM]
1 | O=C(N/N=C\c1ccc(N(CCCl)CCCl)cc1)c1cccnc1 | 55.5 | > 100 | 3.39 | 46.9 | 31.5 | > 100 | 33.4 | > 100 | 2.13 | 11.4 | 3.83 | > 100 | 39.8 | > 100 | 19.7 | 85.7 | 36.3 | > 100 | – | –
2 | C/C=C(\C)C(=O)OC1C2C(C)=CC(=O)C(O)C2(C)C2C3(O)OCC24C1OC(=O)C(OC(C)=O)C4C(C)C3O (stereo not given) | – | 0.0928 | – | 0.808 | – | 0.0415 | – | – | – | 0.0427 | – | 0.038 | – | 0.105 | – | 0.063 | – | – | 0.141 | –
3 | CCOC(=O)c1ccc(Nc2nc3ccccc3n3cccc23)cc1 | – | > 100 | – | 0.0169 | – | 75.7 | – | > 100 | – | – | – | > 100 | – | > 100 | – | 49.7 | – | > 100 | – | –
4 | CC(C)(C)c1ccc(NS(=O)(=O)c2ccc(N)cc2)cc1 | – | 39.5 | – | 38.1 | – | 13.7 | – | 73.5 | – | 45.8 | – | > 100 | – | 68.5 | – | 94.1 | – | 32.5 | – | –
5 | COc1cc2c(c(OC)c1OC)-c1ccc(OC)c(=O)cc1C(NC(=O)CCCCCNc1ccc(N=[N+]=[N-])cc1[N+](=O)[O-])CC2 (stereo not given) | – | – | – | < 0.01 | – | > 31.6 | – | < 0.01 | – | < 0.01 | – | < 0.0139 | – | > 100 | – | 6.67 | – | < 0.01 | – | –
6 | CC(C)(C)OC(=O)NCC(c1c[nH]c2cc(Br)ccc12)c1c[nH]c2cc(Br)ccc12 | – | 38.4 | – | 64.2 | – | 33.2 | – | 31.9 | – | 34.5 | – | 48.7 | – | 36.5 | – | 32 | – | 34.2 | – | –
7 | N#C[S-].[Ce+3].c1ccc(-c2ccccn2)nc1.c1ccc(-c2ccccn2)nc1.c1ccc(-c2ccccn2)nc1 | 18.3 | > 100 | – | – | – | – | – | – | 18 | 63.1 | 13.1 | > 100 | 13.5 | > 100 | 22.7 | 98.4 | 3.78 | 20.4 | > 100 | 58.3
8 | COC(Cc1cc(C(O)(c2ccc(C(C)(C)C)cc2)c2cc(CC(OC)(c3cc(C(OC)(c4ccc(C(C)(C)C)cc4)c4ccc(C(C)(C)C)cc4)c(C)cc3C)c3cc(C(OC)(c4ccc(C(C)(C)C)cc4)c4ccc(C(C)(C)C)cc4)c(C)cc3C)c(C)cc2C)c(C)cc1C)(c1cc(C(OC)(c2ccc(C(C)(C)C)cc2)c2ccc(C(C)(C)C)cc2)c(C)cc1C)c1cc(C(OC)(c2ccc(C(C)(C)C)cc2)c2ccc(C(C)(C)C)cc2)c(C)cc1C | – | > 75 | – | > 75 | – | > 75 | – | > 75 | – | > 75 | – | > 75 | – | > 75 | – | > 75 | – | > 75 | – | –
9 | O=C1NCN(c2ccccc2)C12CCN(CCCN1CCN(CCOC(c3ccccc3)c3ccccc3)CC1)CC2 | – | 1.02 | – | 4.31 | – | 6.6 | – | 2.46 | – | 7.35 | – | 7.45 | – | 6.51 | – | 4.68 | – | 2.35 | – | –
10 | CC(=O)NC(CS)C(=O)NC(CO)C(=O)NC(CO)C(=O)NC(Cc1c[nH]c2ccccc12)C(=O)N1CCCC1C(=O)NC(CO)C(=O)NC(Cc1c[nH]c2ccccc12)C(=O)NC(Cc1c[nH]cn1)C(=O)NC(CO)C(=O)NC(Cc1c[nH]c2ccccc12)C(=O)NCC(=O)NCC(=O)NC(C)C(=O)NC(CCC(N)=O)C(=O)NC(CCCCN)C(=O)NC(C)C(=O)NC(CCCNC(=N)N)C(=O)NC(CCCCN)C(N)=O (stereo not given) (Ac-CSSWPSWHSWGGAQKARK-NH2; configuration not given here) | – | – | – | 34.5 | – | > 50 | – | > 50 | – | > 50 | – | 35.5 | – | > 50 | – | 24.9 | – | 22.4 | – | –
11 | COc1nc2ccc(Cl)c(C(O)c3ccccc3)c2nc1OC (stereo not given) | – | – | – | 52.5 | – | 38.6 | – | 42.8 | – | 54.7 | – | > 100 | – | > 100 | – | 41.3 | – | 30.3 | – | –
12 | COc1ccccc1N1C(=O)CSC1c1cccc(Oc2ccccc2)c1 (stereo not given) | – | – | – | 72.6 | – | 45.7 | – | 32 | – | 36.9 | – | 33.3 | – | 37.5 | – | 33.6 | – | 29.9 | – | –
13 | COC1=CC(c2ccc[nH]2)=N/C1=C\c1[nH]c(C)c(CC(=O)NCc2ccccc2)c1C | 1.55 | 3.07 | 1.63 | 3.47 | 1.51 | 2.95 | 1.68 | 3.23 | – | – | – | – | – | – | 1.55 | 2.95 | 1.53 | 2.89 | – | –
14 | Brc1ccc2nc(-c3cccs3)nc(N3CCN(c4ccccc4)CC3)c2c1 | – | > 100 | – | > 100 | – | > 100 | – | > 100 | – | > 100 | – | > 100 | – | > 100 | – | – | – | > 100 | – | –
15 | CCOC(=O)NC(=O)c1cn(CCN(CCO)C(=O)NCCCCCCNC(=O)N(CCO)CCn2cc(C(=O)NC(=O)OCC)c(=O)[nH]c2=O)c(=O)[nH]c1=O | – | > 100 | – | > 100 | – | > 100 | – | – | – | > 100 | – | > 100 | – | > 100 | – | > 100 | – | > 100 | > 100 | –
16 | NS(=O)(=O)c1ccc(N=Nc2ccc(O)cc2)cc1 | – | > 100 | – | > 100 | – | > 100 | – | > 100 | – | 89.1 | – | > 100 | – | > 100 | – | > 100 | – | > 100 | – | –
17 | CC1=C/C(=N\NS(=O)(=O)c2ccc([N+](=O)[O-])cc2)CC(C)(C)C1 | – | > 100 | – | > 100 | – | > 100 | – | > 100 | – | – | – | > 100 | – | > 100 | – | > 100 | – | > 100 | – | –
18 | N#CC1(C#N)C(=O)c2ccncc2C1=O | – | > 100 | – | > 100 | – | – | – | > 100 | – | > 100 | – | > 100 | – | > 100 | – | > 100 | – | > 100 | – | –
19 | COc1cc(-c2n/c(=C\c3c(O)[nH]c4ccccc34)cc3c2=Nc2ccccc2-3)ccc1F | 4.32 | > 100 | > 100 | > 100 | 4.68 | 17.3 | 5.8 | 64.4 | 19.9 | > 100 | 4.37 | 58.2 | 8.4 | 31.5 | 3.61 | 22.2 | 4.45 | 24.1 | – | –
20 | CN(CCO)CCC1COc2ccccc2O1 (stereo not given) | – | > 10 | – | > 10 | – | > 10 | – | > 10 | – | > 10 | – | > 10 | – | > 10 | – | > 10 | – | > 10 | – | –
21 | O=C(CSc1nc2ccc(I)cc2c(=O)n1Cc1ccccc1)NNC(=S)Nc1ccccc1 | – | > 100 | – | > 100 | – | – | – | > 100 | – | > 100 | – | > 100 | – | – | – | > 100 | – | > 100 | – | –
22 | COc1c(O)cc2c(c1O)C(=O)C(Cc1ccc(O)cc1)CO2 (stereo not given) | – | – | – | > 100 | – | > 100 | – | 76.8 | – | – | – | > 100 | – | > 100 | – | > 100 | – | > 100 | – | –
23 | O=C([O-])c1ccccc1Nc1ccccc1C(=O)[O-].[OH3+].[Zn+2] | – | > 100 | – | 49.4 | – | > 58.5 | – | – | – | 67 | – | > 100 | – | > 66.4 | – | 42.7 | – | 62.3 | > 87.1 | –
